Test results from article PMC3672105, “Identification and Enhancement of HLA-A2.1-Restricted CTL Epitopes in a New Human Cancer Antigen-POTE” (PLoS ONE, 2013).

The sequences below were run on AAD transgenic mice (assay: Ex vivo interferon-γ ELISPOT assay after peptide immunization). Details: AAD mice immunized s.c. with 50 nmol peptide, boosted at 2 weeks; pooled splenocytes of 3 mice; targets pulsed with 1.0 µM (1000 nM) peptide.
Type: in vivo, mouse
Description: (§1) Cytokines were purchased from Peprotech (Rocky Hill, NJ). […] For all experiments, groups of three mice were used.
The numbers of IFN-γ secreting cells were determined by an ELISPOT kit (Mouse IFN-gamma ELISpot SixPak; R&D, Minneapolis, […]) or by a set of anti-mouse IFN-γ coating (AN18) and detecting (R4–6A2) monoclonal antibodies (Mabtech) according to the manufacturer’s instructions. Two weeks after the last immunization, spleen cells were plated on antibody-coated plates at 200,000, 100,000 and 50.000 cells/well and stimulated with 200,000 peptide-pulsed naïve spleen cells/well with indicated concentration of peptides for 2 hours. After incubation overnight at 37°C, the plates were washed and detecting antibody was added. An ELISPOT blue color module (R&D) was used for color development. The spots were read by an ELISPOT reader (AID). All samples were analyzed in triplicate.
In the case of GLTPLLLGV [POTE 272–280], the “IFN-γ response (ELISPOT) after stimulation with the immunizing peptide” value (“IFN-γ response … with the immunizing peptide” below) is reported as “induced significant IFN-γ responses”. With KILEEIESV [POTE 553–561] the “IFN-γ response … with the immunizing peptide” value was “did not induce any significant IFN-γ responses”. With KLLEEIESV [POTE 553-2L] the “IFN-γ response … with the immunizing peptide” value was “induced some level of IFN-γ responses only after stimulation with the same peptide”. In the case of KLMAKALLL [POTE 252–260], the “IFN-γ response … with the immunizing peptide” value is reported as “induced a significant number of IFN-γ spots”. In the case of KLMAKALLV [POTE 252-9V], the “IFN-γ response … with the immunizing peptide” value is reported as “induced a significant number of IFN-γ spots”. LLFEQNVDV [POTE 323-3F] was tested, and the “IFN-γ response … with the immunizing peptide” value was “induced significant IFN-γ spots”. In the case of LLLEQNVDV [POTE 323–331], the “IFN-γ response … with the immunizing peptide” value is reported as “only marginal IFN-γ responses”. For YILEEIESV [POTE 553-1Y], the “IFN-γ response … with the immunizing peptide” value was “induced some level of IFN-γ responses only after stimulation with the same peptide”. With YLMAKALLL [POTE 252-1Y] the “IFN-γ response … with the immunizing peptide” value was “no significant IFN-γ responses were detected”.

Same assay, conditions: AAD mice immunized with 50 nmol peptide; targets pulsed with 1000 nM peptide
For LLLEQNVDV [POTE 323–331], the “IFN-γ response over background level (ELISPOT)” value was “less than 2 fold”.

Same assay, conditions: AAD mice immunized with enhanced peptide; stimulation with wild type peptide
For KLLEEIESV [POTE 553-2L], the “cross-reactive IFN-γ response (ELISPOT) to wild type peptide” value (from here on “cross-reactive IFN-γ response (ELISPOT)”) was “no cross-reactive response to wild type peptide was detected”. In the case of KLMAKALLV [POTE 252-9V], the “cross-reactive IFN-γ response (ELISPOT)” value is reported as “cross-reactivity to both POTE 252 and POTE 252-9V”. With LLFEQNVDV [POTE 323-3F] the “cross-reactive IFN-γ response (ELISPOT)” value was “some degree of IFN-γ response was also detected”. In the case of YILEEIESV [POTE 553-1Y], the “cross-reactive IFN-γ response (ELISPOT)” value is reported as “no cross-reactive response to wild type peptide was detected”.

These sequences were tested on HHD-2 mice (assay: HLA-A2/peptide tetramer staining and TCR Vβ repertoire of CD8+ T cells). Details: HHD-2 mice immunized with the peptide; HLA-A2/peptide tetramer staining, Figure 2C.
Type: in vivo, mouse
Text: as §1
Tetrameric MHC class I/peptide complexes obtained from the NIH Tetramer Facility were synthesized as described previously, [25]. Briefly, purified single-chain HLA-A2 molecules were synthesized by a prokaryotic expression system (pET; R&D Systems, Minneapolis, MN). The heavy chain was modified containing the Bir-A enzymatic biotinylation site. Single-chain heavy chain-β2-microglobulin and peptide were refolded by dilution into a redoxshuffling buffer system. The refolded product was biotinylated by Bir-A in the presence of […] (Avidity, Denver, CO). Streptavidin-Phycoerythrin conjugate (Jackson ImmunoResearch, West Grove, PA) was added in a 1∶4 molar ratio. Per-CP labeled anti-mouse CD8 antibody (BD Pharmingen) and TCR Vβ screening panel (BD Pharmingen) were used to detect the TCR repertoire of the CTLs.
With KLMAKALLL [POTE 252–260] the “tetramer-positive CD8+ T cells” value was 9.3%. With KLMAKALLV [POTE 252-9V] the “tetramer-positive CD8+ T cells” value was 6.8%.

Same assay, conditions: HHD-2 mice immunized with the peptide; TCR Vβ screening panel, Figure 2D
In the case of KLMAKALLV [POTE 252-9V], the “CD8+tetramer+ T cells positive for Vβ10” value is reported as “about 80%”.

What follows are sequences tested against T1, HLA-A2 molecule (Homo sapiens, UniProt P04439, D140Y/D185E/D98H/E176V/E277Q/G131W/G231S/I119V/I121R/I166T/I218V/L300P/L318F/N151K/N90K/P208A/P217A/Q86G/Q94H/R138H/R169H/T345S) (assay: T2 binding assay). Details: T2 binding assay, Figure 1A.
T1 construct: endogenous in cells; host or cells: T2 cell line (TAP1/TAP2-deficient)
Description: Peptide binding capacity to the HLA-A2 molecule was measured by using the T2 cell line according to a protocol described previously, [22]. T2 cells (3 × 10^5 cells/well) were incubated overnight in 96-well plates with culture medium (1∶1 mixture of RPMI 1640/Eagle-Hank’s amino acid containing 2.5% fetal bovine serum, 100 U/ml penicillin, and 100 µg/ml streptomycin) with 10 µg/ml β2-microglobulin (Sigma) and different titrated concentrations of peptides (starting from 100 µM with 2-fold serial dilution) as shown in the figures to determine the concentration giving a 50% increase in binding (see below). Cells were washed once with cold HBSS containing 0.1% BSA and incubated for 30 min at 4°C with anti-HLA-A2.1 monoclonal antibody (clone BB7.2) (1∶40 dilution from hybridoma supernatant). After washing, cells were stained with FITC-labeled goat anti-mouse immunoglobulin (BD, San Jose, CA), and the level of HLA expression was measured by flow cytometry. HLA-A2 expression was quantified as fluorescence index (FI) according to the following formula: FI = (geometric mean fluorescence intensity with peptide - geometric mean fluorescence intensity without peptide)/geometric mean fluorescence intensity without peptide. Background fluorescence without BB7.2 was subtracted for each individual value. To compare the different peptides, FI0.5, the peptide concentration that increases HLA-A2.1 expression by 50% over no peptide control background, was calculated from the titration curve for each peptide. It should be noted that the FI0.5 provides a relative measure of peptide affinity or potency among peptides compared side by side, but cannot be taken as a thermodynamic affinity.
In the case of GLTPLLLGV [POTE 272–280], the “HLA-A2 binder class in words” value is reported as “strongest binding affinity”. With KILEEIESV [POTE 553–561] the “HLA-A2 binder class in words” value was “intermediate binders”. In the case of KLMAKALLL [POTE 252–260], the “HLA-A2 binder class in words” value is reported as “intermediate binders”. LLLEQNVDV [POTE 323–331] was tested, and the “HLA-A2 binder class in words” value was “strongest binding affinity”.

Same assay, conditions: predicted wild type peptides, Figure 1A; T2 cells overnight with peptide (from 100 µM, 2-fold dilutions) and 10 µg/ml β2-microglobulin; BB7.2 staining, flow cytometry; triplicate
In the case of GLTPLLLGV [POTE 272–280], the “FI0.5 (peptide concentration that increases HLA-A2.1 expression by 50% over no peptide control)” value is reported as 0.9 µM. For KILEEIESV [POTE 553–561], the “FI0.5 (peptide concentration that increases HLA-A2.1 expression by 50% over no peptide control)” value was 5.6 µM. With KLMAKALLL [POTE 252–260] the “FI0.5 (peptide concentration that increases HLA-A2.1 expression by 50% over no peptide control)” value was 1.6 µM. With LLLEQNVDV [POTE 323–331] the “FI0.5 (peptide concentration that increases HLA-A2.1 expression by 50% over no peptide control)” value was 0.8 µM.

Same assay, conditions: ratio to wild type POTE 252
With KLMAKALLV [POTE 252-9V] the “FI0.5 lower (higher affinity) than that of the POTE 252 peptide” value was ~2 fold. With YLMAKALLL [POTE 252-1Y] the “FI0.5 lower (higher affinity) than that of the POTE 252 peptide” value was ~2 fold.

Same assay, conditions: ratio to wild type POTE 323
With LLFEQNVDV [POTE 323-3F] the “FI0.5 better than the wild type peptide” value was “approximately 3 fold”.

Same assay, conditions: wild type and substituted peptides, Figure 1B-D; T2 cells overnight with peptide and 10 µg/ml β2-microglobulin; BB7.2 staining, flow cytometry; triplicate
For KILEEIASV [POTE-553-7A], the “FI0.5 (peptide concentration that increases HLA-A2.1 expression by 50% over no peptide control)” value was 0.2 µM. For KLAAKALLL [POTE 252-3A], the “FI0.5 (peptide concentration that increases HLA-A2.1 expression by 50% over no peptide control)” value was 16.9 µM. With KLLEEIESV [POTE 553-2L] the “FI0.5 (peptide concentration that increases HLA-A2.1 expression by 50% over no peptide control)” value was 0.1 µM. With KLMAKAALL [POTE 252-7A] the “FI0.5 (peptide concentration that increases HLA-A2.1 expression by 50% over no peptide control)” value was 4 µM. For KLMAKALLV [POTE 252-9V], the “FI0.5 (peptide concentration that increases HLA-A2.1 expression by 50% over no peptide control)” value was 0.8 µM. For LLAEQNVDV [POTE 323-3A], the “FI0.5 (peptide concentration that increases HLA-A2.1 expression by 50% over no peptide control)” value was 0.4 µM. LLFEQNVDV [POTE 323-3F] was tested, and the “FI0.5 (peptide concentration that increases HLA-A2.1 expression by 50% over no peptide control)” value was 0.09 µM. In the case of LLLEQNADV [POTE 323-7A], the “FI0.5 (peptide concentration that increases HLA-A2.1 expression by 50% over no peptide control)” value is reported as 2.78 µM. YILEEIESV [POTE 553-1Y] was tested, and the “FI0.5 (peptide concentration that increases HLA-A2.1 expression by 50% over no peptide control)” value was 0.024 µM. In the case of YLLEQNVDV [POTE 323-1Y], the “FI0.5 (peptide concentration that increases HLA-A2.1 expression by 50% over no peptide control)” value is reported as 0.25 µM. For YLMAKALLL [POTE 252-1Y], the “FI0.5 (peptide concentration that increases HLA-A2.1 expression by 50% over no peptide control)” value was 0.9 µM.

Each sequence was assayed on C1R.AAD cells pulsed with peptides (assay: 4-h 51Cr release CTL assay on peptide-pulsed targets after one week in vitro stimulation). Details: CTLs from immunized AAD mice after one week in vitro stimulation with cognate peptide (1.0 µM), targets pulsed with 1.0 µM peptide.
Type: cell-based, human
Text: as §1
For GLTPLLLGV [POTE 272–280], the “CTL lysis of peptide-pulsed target cells” value was “lysed target cells pulsed with POTE 272”. In the case of KILEEIESV [POTE 553–561], the “CTL lysis of peptide-pulsed target cells” value is reported as “not any significant detectable target cell lysis”. For KLLEEIESV [POTE 553-2L], the “CTL lysis of peptide-pulsed target cells” value was “did not lyse target cells pulsed with POTE 553-2L”. For KLMAKALLL [POTE 252–260], the “CTL lysis of peptide-pulsed target cells” value was “lysed target cells pulsed with the wild type POTE 252 as well as POTE 252-9V”. With KLMAKALLV [POTE 252-9V] the “CTL lysis of peptide-pulsed target cells” value was “lysed target cells pulsed with the wild type POTE 252 as well as POTE 252-9V”. LLFEQNVDV [POTE 323-3F] was tested, and the “CTL lysis of peptide-pulsed target cells” value was “lysed target cells pulsed with the POTE 323-3F, as well as wild type POTE 323”. LLLEQNVDV [POTE 323–331] was tested, and the “CTL lysis of peptide-pulsed target cells” value was “failed to lyse target cells pulsed with POTE 323”. In the case of YILEEIESV [POTE 553-1Y], the “CTL lysis of peptide-pulsed target cells” value is reported as “lysed target cells pulsed with not only POTE 553-1Y, but also POTE 553 and POTE 553-2L peptides”.
